Read-outs that look alike come from different tables or passages of the source.
Assays:
male Wistar rats = assay: Loss of the righting reflex (LRR) in rats; format: in vivo, rat; settings: i.v. via tail vein, dose in the range of 10–100 mg/kg
Protocol: The intrinsic efficacy of a compound was assessed by its ability to cause loss of the righting reflex (LRR) in rats, an effect associated with benzodiazepine full agonism.
Method: Subjects for these studies were male Wistar rats, weighing approximately 250–350 grams. To assess loss of righting reflex (LRR), animals were placed in plastic restrainers and test compounds were administered i.v. via the tail vain. Subjects were immediately removed from the restrainer and the time to onset of loss of righting reflex was recorded. LRR was defined as the loss of an animal's ability to right itself when placed in a supine position. […] Compounds producing LRR were evaluated by three measures: 1) Time to onset of LRR (as described above) 2) Time to recover from LRR. An animal met this criteria when able to right itself three consecutive times after losing its righting reflex 3) Total recovery time. Total recovery was measured by the animal's ability to walk without ataxia as well as its ability to pull itself up three consecutive times when suspended from a horizontal wire. […] The therapeutically useful dosage range for administration to mammals is 0.01 to 5.0 mg/kg of body weight.

[1] = molecular target: benzodiazepine receptor (benzodiazepine site on the GABAA receptor complex); assay: Benzodiazepine radioligand (3H-flunitrazepam) binding assay
[2] = read-out: Benzodiazepine receptor binding Ki, 3H-flunitrazepam, brain membrane homogenates, 90 minutes at 4° C., tissue species of the tabulated values not stated

## COC(=O)CC[C@@H]1N=C(c2ccccc2F)c2cc(Cl)ccc2-n2c1cnc2C (racemic) [Example 1c-18]
Male Wistar rats
  loss of righting reflex (LRR): producing loss-of-righting
[1]; [2]
  Ki: 1 to 50 nM

## CN1C(=O)CN=C(c2ccccc2Cl)c2cc(Cl)ccc21 [2′-chlorodiazepam, reference compound]
[1]; compound used at 10 μM to define nonspecific binding
  Ki: 0.5 nM

## COC(=O)CC[C@@H]1N=C(c2ccccc2F)c2cc(Cl)ccc2NC1=O [Example 1-1, Methyl 3-[(3S)-7-chloro-5-(2-fluorophenyl)-2-oxo-2,3-dihydro-1H-1,4-benzodiazepin-3-yl]propanoate]
Male Wistar rats
  loss of righting reflex (LRR): producing loss-of-righting
[1]; [2]
  Ki: 1 to 50 nM

## COC(=O)CC[C@@H]1N=C(c2ccccc2F)c2cc(Cl)ccc2NC1=O [Example 1-2]
[1]; [2]
  Ki: 51 to 100 nM

## COC(=O)CC[C@@H]1N=C(c2ccccc2F)c2cc(Br)ccc2NC1=O [Example 1-3]
Male Wistar rats
  loss of righting reflex (LRR): producing loss-of-righting
[1]; [2]
  Ki: 1 to 50 nM

## COC(=O)CC[C@H]1N=C(c2ccccc2F)c2cc(Cl)ccc2NC1=O [Example 1-4]
Male Wistar rats
  loss of righting reflex (LRR): producing loss-of-righting
[1]; [2]
  Ki: 101 to 1000 nM

## O=C(CC[C@@H]1N=C(c2ccccc2F)c2cc(Cl)ccc2NC1=O)OCc1ccccc1 [Example 1-5]
Male Wistar rats
  loss of righting reflex (LRR): producing loss-of-righting
[1]; [2]
  Ki: 1 to 50 nM

## O=C(CC[C@@H]1N=C(c2ccccc2F)c2cc(Cl)ccc2NC1=O)OCc1ccccc1 [Example 1-6]
Male Wistar rats
  loss of righting reflex (LRR): producing loss-of-righting
[1]; [2]
  Ki: 101 to 1000 nM

## COC(=O)CC[C@@H]1N=C(c2ccccc2Cl)c2cc(Cl)ccc2NC1=O [Example 1-7]
Male Wistar rats
  loss of righting reflex (LRR): producing loss-of-righting
[1]; [2]
  Ki: 1 to 50 nM

## COC(=O)CCC[C@@H]1N=C(c2ccccc2F)c2cc(Cl)ccc2NC1=O [Example 1-8]
[1]; [2]
  Ki: 1 to 50 nM

## O=C(CC[C@@H]1N=C(c2ccccn2)c2cc(Cl)ccc2NC1=O)OCc1ccccc1 [Example 1-9]
Male Wistar rats
  loss of righting reflex (LRR): producing loss-of-righting
[1]; [2]
  Ki: 101 to 1000 nM

## COC(=O)CC[C@@H]1N=C(c2ccccn2)c2cc(Br)ccc2NC1=O [Example 1-10]
[1]; [2]
  Ki: 51 to 100 nM

## COC(=O)CC[C@@H]1N=C(c2ccccn2)c2cc(Cl)ccc2NC1=O [Example 1-11]
Male Wistar rats
  loss of righting reflex (LRR): producing loss-of-righting
[1]; [2]
  Ki: 101 to 1000 nM

## COC(=O)CCC[C@@H]1N=C(c2ccccc2F)c2cc([N+](=O)[O-])ccc2NC1=O [Example 1-13]
[1]; [2]
  Ki: 1 to 50 nM

## CCCOC(=O)CC[C@@H]1N=C(c2ccccn2)c2cc(Cl)ccc2NC1=O [Example 1-14]
[1]; [2]
  Ki: 101 to 1000 nM

## CCOC(=O)CC[C@@H]1N=C(c2ccccn2)c2cc(Cl)ccc2NC1=O [Example 1-15]
[1]; [2]
  Ki: 101 to 1000 nM

## CCCCOC(=O)CC[C@@H]1N=C(c2ccccc2F)c2cc(Cl)ccc2NC1=O [Example 1-17]
Male Wistar rats
  loss of righting reflex (LRR): producing loss-of-righting
[1]; [2]
  Ki: 101 to 1000 nM

## CCCCOC(=O)CC[C@@H]1N=C(c2ccccn2)c2cc(Cl)ccc2NC1=O [Example 1-18]
[1]; [2]
  Ki: 101 to 1000 nM

## CC(C)COC(=O)CC[C@@H]1N=C(c2ccccn2)c2cc(Cl)ccc2NC1=O [Example 1-19]
[1]; [2]
  Ki: 101 to 1000 nM

## CCOC(=O)C[C@@H]1N=C(c2ccccc2F)c2cc(Cl)ccc2NC1=O [Example 1-20]
[1]; [2]
  Ki: 1 to 50 nM

## CC(C)OC(=O)CC[C@@H]1N=C(c2ccccc2F)c2cc(Cl)ccc2NC1=O [Example 1-21]
[1]; [2]
  Ki: 1 to 50 nM

## CCN(CC)CCN1C(=O)[C@H](CCC(=O)OC)N=C(c2ccccc2F)c2cc(Cl)ccc21 [Example 1-22]
[1]; [2]
  Ki: 101 to 1000 nM

## COC(=O)CC[C@@H]1N=C(c2ccccc2F)c2cc(Cl)ccc2N(C)C1=O [Example 1-23]
Male Wistar rats
  loss of righting reflex (LRR): producing loss-of-righting
[1]; [2]
  Ki: 1 to 50 nM

## CN1C(=O)[C@H](CC(=O)OCc2ccccc2)N=C(c2ccccc2F)c2cc(Cl)ccc21 [Example 1-24]
[1]; [2]
  Ki: 51 to 100 nM

## CCN(CC)CCN1C(=O)[C@H](CCC(=O)OCc2ccccc2)N=C(c2ccccc2F)c2cc(Cl)ccc21 [Example 1-25]
[1]; [2]
  Ki: 51 to 100 nM

## COC(=O)CNC1N=C(c2ccccc2Cl)c2cc(Cl)ccc2NC1=O (stereo not shown) [Example 1-26]
[1]; [2]
  Ki: 51 to 100 nM

## COC(=O)CCNC1N=C(c2ccccc2Cl)c2cc(Cl)ccc2NC1=O (stereo not shown) [Example 1-27]
[1]; [2]
  Ki: 1 to 50 nM

## COC(=O)CC[C@H]1C(=O)Nc2ccc(Cl)cc2C(c2ccccc2F)=[N+]1[O-] [Example 1-31]
[1]; [2]
  Ki: 51 to 100 nM

## CNC1=Nc2ccc(Cl)cc2C(c2ccccc2F)=N[C@H]1CCC(=O)OC [Example 1b-1]
Male Wistar rats
  loss of righting reflex (LRR): producing loss-of-righting
[1]; [2]
  Ki: 51 to 100 nM

## CCNC1=Nc2ccc(Cl)cc2C(c2ccccc2F)=N[C@H]1CCC(=O)OC [Example 1b-3]
[1]; [2]
  Ki: 101 to 1000 nM

## COC(=O)CC[C@@H]1N=C(c2ccccc2F)c2cc(Cl)ccc2N=C1NCc1ccccc1 [Example 1b-4]
[1]; [2]
  Ki: 101 to 1000 nM

## COC(=O)CC[C@@H]1N=C(c2ccccc2F)c2cc(Cl)ccc2N=C1NCc1ccncc1 [Example 1b-5]
[1]; [2]
  Ki: > 1000 nM

## COC(=O)CC[C@@H]1N=C(c2ccccc2F)c2cc(Cl)ccc2N=C1NCCc1ccncc1 [Example 1b-6]
[1]; [2]
  Ki: 101 to 1000 nM

## COC(=O)CC[C@@H]1N=C(c2ccccc2F)c2cc(Cl)ccc2N=C1NCC(C)C [Example 1b-7]
[1]; [2]
  Ki: > 1000 nM

## COC(=O)CC[C@@H]1N=C(c2ccccc2F)c2cc(Cl)ccc2N=C1NCCc1c[nH]cn1 [Example 1b-8]
[1]; [2]
  Ki: 101 to 1000 nM

## COC(=O)CC[C@@H]1N=C(c2ccccc2F)c2cc(Cl)ccc2N=C1NCCO [Example 1b-9]
[1]; [2]
  Ki: 101 to 1000 nM

## CNC1=Nc2ccc(Br)cc2C(c2ccccc2F)=N[C@H]1CCC(=O)OC [Example 1b-10]
Male Wistar rats
  loss of righting reflex (LRR): producing loss-of-righting
[1]; [2]
  Ki: 1 to 50 nM

## COC(=O)CC[C@@H]1N=C(c2ccccc2F)c2cc(Cl)ccc2-n2ccnc21 [Example 1c-1]
Male Wistar rats
  loss of righting reflex (LRR): producing loss-of-righting
[1]; [2]
  Ki: 1 to 50 nM

## COC(=O)CC[C@@H]1N=C(c2ccccc2F)c2cc(Cl)ccc2-n2c(C)cnc21 [Example 1c-2]
Male Wistar rats
  loss of righting reflex (LRR): producing loss-of-righting
[1]; [2]
  Ki: 1 to 50 nM

## COC(=O)CC[C@@H]1N=C(c2ccccc2F)c2cc(Cl)ccc2-n2cc(C)nc21 [Example 1c-3]
Male Wistar rats
  loss of righting reflex (LRR): producing loss-of-righting
[1]; [2]
  Ki: 1 to 50 nM

## COC(=O)CC[C@@H]1N=C(c2ccccc2F)c2cc(Cl)ccc2-n2cc(CO)nc21 [Example 1c-4]
[1]; [2]
  Ki: 1 to 50 nM

## COC(=O)CC[C@@H]1N=C(c2ccccc2F)c2cc(Cl)ccc2-n2c(CO)cnc21 [Example 1c-5]
[1]; [2]
  Ki: 1 to 50 nM

## COC(=O)CC[C@@H]1N=C(c2ccccn2)c2cc(Cl)ccc2-n2ccnc21 [Example 1c-6]
Male Wistar rats
  loss of righting reflex (LRR): producing loss-of-righting
[1]; [2]
  Ki: 51 to 100 nM

## COC(=O)CC[C@@H]1N=C(c2ccccn2)c2cc(Cl)ccc2-n2c(C)cnc21 [Example 1c-7]
Male Wistar rats
  loss of righting reflex (LRR): producing loss-of-righting
[1]; [2]
  Ki: 51 to 100 nM

## COC(=O)CC[C@@H]1N=C(c2ccccn2)c2cc(Br)ccc2-n2c(C)cnc21 [Example 1c-8, Methyl 3-[(4S)-8-bromo-1-methyl-6-(2-pyridinyl)-4H-imidazo[1,2-a][1,4]benzodiazepin-4-yl]propanoate]
Male Wistar rats
  loss of righting reflex (LRR): producing loss-of-righting
[1]; [2]
  Ki: 1 to 50 nM

## COC(=O)CC[C@@H]1N=C(c2ccccn2)c2cc(Br)ccc2-n2cc(C)nc21 [Example 1c-9]
[1]; [2]
  Ki: 1 to 50 nM

## COC(=O)CC[C@@H]1N=C(c2ccccn2)c2cc(Cl)ccc2-n2cc(C)nc21 [Example 1c-10]
Male Wistar rats
  loss of righting reflex (LRR): producing loss-of-righting
[1]; [2]
  Ki: 51 to 100 nM

## COC(=O)CC[C@@H]1N=C(c2ccccn2)c2cc(Cl)ccc2-n2cc(CO)nc21 [Example 1c-11]
[1]; [2]
  Ki: 101 to 1000 nM

## COC(=O)CC[C@@H]1N=C(c2ccccn2)c2cc(Cl)ccc2-n2c(CO)cnc21 [Example 1c-12]
[1]; [2]
  Ki: 101 to 1000 nM

## COC(=O)CC[C@@H]1N=C(c2ccccn2)c2cc(Cl)ccc2-n2c1nc(C)c2C [Example 1c-13]
[1]; [2]
  Ki: 101 to 1000 nM

## COC(=O)CC[C@@H]1N=C(c2ccccc2Cl)c2cc(Cl)ccc2-n2c(C)nnc21 [Example 1c-14]
Male Wistar rats
  loss of righting reflex (LRR): producing loss-of-righting
[1]; [2]
  Ki: 1 to 50 nM

## COC(=O)CC[C@@H]1N=C(c2ccccc2F)c2cc(Cl)ccc2-n2c(C)nnc21 [Example 1c-15]
Male Wistar rats
  loss of righting reflex (LRR): producing loss-of-righting
[1]; [2]
  Ki: 1 to 50 nM

## Cc1nnc2n1-c1ccc(Cl)cc1C(c1ccccc1F)=N[C@H]2CCC(=O)OCC(C)C [Example 1c-16]
[1]; [2]
  Ki: 1 to 50 nM

## COC(=O)CC[C@@H]1N=C(c2ccccc2F)c2cc(Cl)ccc2-n2cc(COC(C)(C)C)nc21 [Example 1c-19]
[1]; [2]
  Ki: 1 to 50 nM

Reference: US7160880B1, “Short-acting benzodiazepines” (CeNeS Limited, priority 1999, dated 2007)
